Results as given in paper PMC6026870, “Selective induction of cancer cell death by VDAC1‐based peptides and their potential use in cancer therapy” (Molecular Oncology, 2018).

Assays:
[1] = test system: A549 cells; assay: Apoptosis, annexin V–FITC/PI staining and flow cytometry; format: cell-based, human; settings: A549, 3 h, serum‐free, 37 °C (Figs 5F,G; also MDA‐MB‐231, Fig. S2B,C)
Protocol: For PI and annexin V–FITC staining, A549 or MDA‐MB‐231 cells, untreated or treated with VDAC1‐based peptides, were collected (1500 g for 5 min), washed, and resuspended in 200 μL binding buffer (10 mM HEPES/NaOH (pH 7.4), 140 mM NaCl, and 2.5 mM CaCl2). Annexin V–FITC staining was performed according to the recommended protocol. Cells were then washed once with binding buffer and resuspended in 200 μL binding buffer, to which PI was added immediately before flow cytometric analysis. At least 10 000 events were collected, recorded on a dot plot, and analyzed by flow cytometer. Acridine orange/ethidium bromide staining was carried as described previously (Zaid et al., 2005), with cells visualized by fluorescence microscopy (Olympus LX2‐KSP, Tokyo, Japan), and images were captured with a CCD camera. About 200 cells were counted for each experiment.

[2] = test system: HeLa cells (HK‐I in cytosolic fraction); assay: Mitochondria‐bound HK detachment, cell fractionation and immunoblotting; format: cell-based, human; settings: peptide 3, 5, 10 μM, 3 h, digitonin […], immunoblot (Fig. 4E)
Protocol: Peptide‐induced HK detachment from mitochondria to the cytosol was also analyzed by immunoblotting. […] Samples were centrifuged at 12 000 g at 4 °C for 10 min, and the obtained supernatants (cytosolic fraction) and pellets (mitochondria) were analyzed by immunoblotting using anti‐HK‐I, anti‐VDAC1, and anti‐GAPDH antibodies, and then with secondary HRP‐conjugated antibodies.

[3] = test system: A549, MDA‐MB‐231 and U‐87MG xenografts; assay: TUNEL assay on xenograft tumor sections; format: in vivo, mouse; settings: TUNEL staining of paraffin sections; no TUNEL‐positive cells in control HBSS‐TTs (Fig. 7A–C)
Protocol: U‐87MG cells (3 × 10^6/mouse), A549 cells (5 × 10^6/mouse), or MDA‐MB‐231 cells (3 × 10^6/mouse) were inoculated subcutaneously (s.c.) into the hind leg flanks of athymic 8‐week‐old male nude mice (Envigo, Huntingdon, UK). Tumor size was measured using a digital caliper and volume was calculated, and when reached 50–100 mm^3 for each tumor type, mice were randomly divided into two groups (five mice per group). […] The xenografts were injected (two points, 20 μL per tumor) every two days. Beginning on the day of inoculation, mouse weight and tumor volume were monitored twice a week. Experiments were terminated after 14, 29, or 20 days for U‐87MG‐, MDA‐MB‐231‐, or A549‐based tumors, respectively. The mice were sacrificed and tumors were excised. Half of each tumor was fixed in 4% buffered formaldehyde, paraffin‐embedded, and processed for IHC, while the second half was frozen in liquid nitrogen for immunoblotting and qPCR analyses. These experimental protocols were approved by the Institutional Animal Care and Use Committee of Ben‐Gurion University.
Paraffin‐embedded‐fixed tumor sections were processed for a TUNEL assay using the DeadEnd Fluorometric TUNEL system according to the manufacturer's instructions. […]

CC[C@H](C)[C@H](NC(=O)[C@H](Cc1ccc(O)cc1)NC(=O)[C@@H]1CCCN1C(=O)[C@H](CCCNC(=N)N)NC(=O)[C@H](Cc1c[nH]cn1)NC(=O)[C@@H](CO)NC(=O)[C@@H](Cc1c[nH]c2ccccc12)NC(=O)[C@H](NC(=O)[C@@H](Cc1c[nH]c2ccccc12)NC(=O)[C@@H](CCC(=O)O)NC(=O)[C@@H](CCCCN)NC(=O)[C@@H](CCCCN)NC(=O)[C@@H](CC(C)C)NC(=O)[C@@H](CCC(=O)O)NC(=O)[C@H](NC(=O)[C@@H](C)NC(=O)[C@H](NC(=O)[C@@H](CC(N)=O)NC(=O)[C@@H](CC(C)C)NC(=O)[C@@H](C)NC(=O)[C@@H](Cc1c[nH]c2ccccc12)NC(=O)[C@H](NC(=O)[C@@H](C)NC(=O)CNC(=O)[C@@H](CC(N)=O)NC(=O)[C@@H](CO)NC(=O)[C@@H](CC(N)=O)NC(=O)[C@@H](CCCCN)NC(=O)[C@@H](Cc1c[nH]c2ccccc12)NC(=O)[C@H](NC(=O)[C@@H](Cc1c[nH]c2ccccc12)NC(=O)[C@H](N)CCCCN)[C@H](C)O)[C@H](C)O)C(C)C)[C@H](C)O)[C@H](C)O)C(=O)N[C@@H](C)C(=O)N[C@@H](Cc1c[nH]cn1)C(=O)O [R‐Tf‐D‐LP4]
apoptotic cell death (annexin V–FITC and PI staining) [1]: over 90% | increase in HK in the cytosolic fraction [2]: about twofold | TUNEL‐positive cells in treated tumors [3]: the majority of the cells were TUNEL‐positive
